Reference: PubChem BioAssay AID1919017 (Molecular Pharmacology Branch, DTP, NCI, 2023)

Test system: SW1271 complex spheroids with HUVEC/MSC, growth, % test/control
Assay: Anticancer human tumor SW1271 cell line growth inhibition [AhR];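 further: spheroids exposed to agents for 7 days before readout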
Details: for IC50: curve of first compound; for viability, T/C: stronger effect = lower value
Summary of the method: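 Agents were dosed in half-log steps down from roughly clinical Cmax, or from 10 microM where Cmax was unknown, alone and with AhR antagonists. Read-out: percent test/control growth of tumor spheroids containing HUVEC and MSC stromal cells.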

[1] = second compound 0.1 µM, first compound 0.0316 µM
[2] = second compound 0.1 µM, first compound 0.1 µM
[3] = second compound 0.1 µM, first compound 0.316 µM
[4] = second compound 0.1 µM, first compound 1 µM
[5] = second compound 0.1 µM, first compound 3.16 µM
[6] = second compound 0.1 µM, first compound 10 µM
[7] = second compound 0.316 µM, first compound 0.0316 µM
[8] = second compound 0.316 µM, first compound 0.1 µM
[9] = second compound 0.316 µM, first compound 0.316 µM
[10] = second compound 0.316 µM, first compound 1 µM
[11] = second compound 0.316 µM, first compound 3.16 µM
[12] = second compound 0.316 µM, first compound 10 µM
[13] = second compound 1 µM, first compound 0.0316 µM
[14] = second compound 1 µM, first compound 0.1 µM
[15] = second compound 1 µM, first compound 0.316 µM
[16] = second compound 1 µM, first compound 1 µM
[17] = second compound 1 µM, first compound 3.16 µM
[18] = second compound 1 µM, first compound 10 µM
[19] = second compound 3.16 µM, first compound 0.0316 µM
[20] = second compound 3.16 µM, first compound 0.1 µM
[21] = second compound 3.16 µM, first compound 0.316 µM
[22] = second compound 3.16 µM, first compound 1 µM
[23] = second compound 3.16 µM, first compound 3.16 µM
[24] = second compound 3.16 µM, first compound 10 µM
[25] = second compound 10 µM, first compound 0.0316 µM
[26] = second compound 10 µM, first compound 0.1 µM
[27] = second compound 10 µM, first compound 0.316 µM
[28] = second compound 10 µM, first compound 1 µM
[29] = second compound 10 µM, first compound 3.16 µM
[30] = second compound 10 µM, first compound 10 µM

CC1(C)CCC(CN2CCN(c3ccc(C(=O)NS(=O)(=O)c4ccc(NCC5CCOCC5)c([N+](=O)[O-])c4)c(Oc4cnc5[nH]ccc5c4)c3)CC2)=C(c2ccc(Cl)cc2)C1 + Cc1ccccc1N=Nc1ccc(NC(=O)c2ccnn2C)c(C)c1
IC50 (second compound 0.1 µM): > 10 µM
IC50 (second compound 0.316 µM): > 10 µM
IC50 (second compound 1 µM): > 10 µM
IC50 (second compound 3.16 µM): > 10 µM
IC50 (second compound 10 µM): > 10 µM
viability, T/C [1]: 96.4%
viability, T/C [2]: 99.5%
viability, T/C [3]: 100%
viability, T/C [4]: 79.4%
viability, T/C [5]: 88.2%
viability, T/C [6]: 94.1%
viability, T/C [7]: 110%
viability, T/C [8]: 78.6%
viability, T/C [9]: 102%
viability, T/C [10]: 99.3%
viability, T/C [11]: 85.4%
viability, T/C [12]: 90%
viability, T/C [13]: 110%
viability, T/C [14]: 88%
viability, T/C [15]: 113%
viability, T/C [16]: 92.9%
viability, T/C [17]: 95.1%
viability, T/C [18]: 128%
viability, T/C [19]: 91.9%
viability, T/C [20]: 105%
viability, T/C [21]: 87.5%
viability, T/C [22]: 76.1%
viability, T/C [23]: 78.3%
viability, T/C [24]: 112%
viability, T/C [25]: 102%
viability, T/C [26]: 99.3%
viability, T/C [27]: 98.4%
viability, T/C [28]: 86%
viability, T/C [29]: 83%
viability, T/C [30]: 93.3%

CCN(c1cc(-c2ccc(CN3CCOCC3)cc2)cc(C(=O)NCc2c(C)cc(C)[nH]c2=O)c1C)C1CCOCC1 + Cc1ccccc1N=Nc1ccc(NC(=O)c2ccnn2C)c(C)c1
IC50 (second compound 0.1 µM): > 3 µM
IC50 (second compound 0.316 µM): > 3 µM
IC50 (second compound 1 µM): > 3 µM
IC50 (second compound 3.16 µM): > 3 µM
IC50 (second compound 10 µM): > 3 µM
viability, T/C (second compound 0.1 µM, first compound 0.00949 µM): 115%
viability, T/C (second compound 0.1 µM, first compound 0.03 µM): 111%
viability, T/C (second compound 0.1 µM, first compound 0.0949 µM): 117%
viability, T/C (second compound 0.1 µM, first compound 0.3 µM): 107%
viability, T/C (second compound 0.1 µM, first compound 0.949 µM): 118%
viability, T/C (second compound 0.1 µM, first compound 3 µM): 110%
viability, T/C (second compound 0.316 µM, first compound 0.00949 µM): 115%
viability, T/C (second compound 0.316 µM, first compound 0.03 µM): 118%
viability, T/C (second compound 0.316 µM, first compound 0.0949 µM): 106%
viability, T/C (second compound 0.316 µM, first compound 0.3 µM): 123%
viability, T/C (second compound 0.316 µM, first compound 0.949 µM): 105%
viability, T/C (second compound 0.316 µM, first compound 3 µM): 107%
viability, T/C (second compound 1 µM, first compound 0.00949 µM): 117%
viability, T/C (second compound 1 µM, first compound 0.03 µM): 110%
viability, T/C (second compound 1 µM, first compound 0.0949 µM): 122%
viability, T/C (second compound 1 µM, first compound 0.3 µM): 122%
viability, T/C (second compound 1 µM, first compound 0.949 µM): 98%
viability, T/C (second compound 1 µM, first compound 3 µM): 88%
viability, T/C (second compound 3.16 µM, first compound 0.00949 µM): 99.3%
viability, T/C (second compound 3.16 µM, first compound 0.03 µM): 114%
viability, T/C (second compound 3.16 µM, first compound 0.0949 µM): 102%
viability, T/C (second compound 3.16 µM, first compound 0.3 µM): 148%
viability, T/C (second compound 3.16 µM, first compound 0.949 µM): 120%
viability, T/C (second compound 3.16 µM, first compound 3 µM): 108%
viability, T/C (second compound 10 µM, first compound 0.00949 µM): 96.5%
viability, T/C (second compound 10 µM, first compound 0.03 µM): 103%
viability, T/C (second compound 10 µM, first compound 0.0949 µM): 91.7%
viability, T/C (second compound 10 µM, first compound 0.3 µM): 111%
viability, T/C (second compound 10 µM, first compound 0.949 µM): 103%
viability, T/C (second compound 10 µM, first compound 3 µM): 118%

COc1cc(Nc2ncc3c(n2)-c2ccc(Cl)cc2C(c2c(F)cccc2OC)=NC3)ccc1C(=O)O + Cc1ccccc1N=Nc1ccc(NC(=O)c2ccnn2C)c(C)c1
IC50 (second compound 0.1 µM): > 10 µM
IC50 (second compound 0.316 µM): > 10 µM
IC50 (second compound 1 µM): 8.76 µM
IC50 (second compound 3.16 µM): > 10 µM
IC50 (second compound 10 µM): > 10 µM
viability, T/C [1]: 73.8%
viability, T/C [2]: 65.6%
viability, T/C [3]: 77.2%
viability, T/C [4]: 52.5%
viability, T/C [5]: 61%
viability, T/C [6]: 50.9%
viability, T/C [7]: 72.5%
viability, T/C [8]: 67.1%
viability, T/C [9]: 79.2%
viability, T/C [10]: 65.9%
viability, T/C [11]: 62.7%
viability, T/C [12]: 53.2%
viability, T/C [13]: 81.8%
viability, T/C [14]: 81%
viability, T/C [15]: 74.4%
viability, T/C [16]: 72%
viability, T/C [17]: 85.5%
viability, T/C [18]: 46.4%
viability, T/C [19]: 87.3%
viability, T/C [20]: 72.5%
viability, T/C [21]: 66%
viability, T/C [22]: 57.9%
viability, T/C [23]: 68.9%
viability, T/C [24]: 60.2%
viability, T/C [25]: 65.3%
viability, T/C [26]: 94.1%
viability, T/C [27]: 65.7%
viability, T/C [28]: 60.5%
viability, T/C [29]: 75.8%
viability, T/C [30]: 53.8%

Cn1ncnc1C1c2n[nH]c(=O)c3cc(F)cc(c23)NC1c1ccc(F)cc1 (stereo not given) + Cc1ccccc1N=Nc1ccc(NC(=O)c2ccnn2C)c(C)c1
IC50 (second compound 0.1 µM): > 0.1 µM
IC50 (second compound 0.316 µM): > 0.1 µM
IC50 (second compound 1 µM): > 0.1 µM
IC50 (second compound 3.16 µM): > 0.1 µM
IC50 (second compound 10 µM): > 0.1 µM
viability, T/C (second compound 0.1 µM, first compound 0.000316 µM): 118%
viability, T/C (second compound 0.1 µM, first compound 0.001 µM): 120%
viability, T/C (second compound 0.1 µM, first compound 0.00316 µM): 133%
viability, T/C (second compound 0.1 µM, first compound 0.01 µM): 109%
viability, T/C [1]: 117%
viability, T/C [2]: 116%
viability, T/C (second compound 0.316 µM, first compound 0.000316 µM): 124%
viability, T/C (second compound 0.316 µM, first compound 0.001 µM): 127%
viability, T/C (second compound 0.316 µM, first compound 0.00316 µM): 109%
viability, T/C (second compound 0.316 µM, first compound 0.01 µM): 118%
viability, T/C [7]: 121%
viability, T/C [8]: 108%
viability, T/C (second compound 1 µM, first compound 0.000316 µM): 105%
viability, T/C (second compound 1 µM, first compound 0.001 µM): 93.8%
viability, T/C (second compound 1 µM, first compound 0.00316 µM): 117%
viability, T/C (second compound 1 µM, first compound 0.01 µM): 117%
viability, T/C [13]: 99.3%
viability, T/C [14]: 114%
viability, T/C (second compound 3.16 µM, first compound 0.000316 µM): 96.1%
viability, T/C (second compound 3.16 µM, first compound 0.001 µM): 127%
viability, T/C (second compound 3.16 µM, first compound 0.00316 µM): 124%
viability, T/C (second compound 3.16 µM, first compound 0.01 µM): 122%
viability, T/C [19]: 97.5%
viability, T/C [20]: 131%
viability, T/C (second compound 10 µM, first compound 0.000316 µM): 118%
viability, T/C (second compound 10 µM, first compound 0.001 µM): 124%
viability, T/C (second compound 10 µM, first compound 0.00316 µM): 110%
viability, T/C (second compound 10 µM, first compound 0.01 µM): 94.5%
viability, T/C [25]: 90.5%
viability, T/C [26]: 82.9%

NS(=O)(=O)OCC1CC(n2ccc3c(NC4CCc5ccccc54)ncnc32)CC1O (stereo not given) + Cc1ccccc1N=Nc1ccc(NC(=O)c2ccnn2C)c(C)c1
IC50 (second compound 0.1 µM): > 10 µM
IC50 (second compound 0.316 µM): > 10 µM
IC50 (second compound 1 µM): > 10 µM
IC50 (second compound 3.16 µM): > 10 µM
IC50 (second compound 10 µM): > 10 µM
viability, T/C [1]: 129%
viability, T/C [2]: 161%
viability, T/C [3]: 118%
viability, T/C [4]: 101%
viability, T/C [5]: 91.2%
viability, T/C [6]: 82.5%
viability, T/C [7]: 135%
viability, T/C [8]: 165%
viability, T/C [9]: 112%
viability, T/C [10]: 95.9%
viability, T/C [11]: 103%
viability, T/C [12]: 86.3%
viability, T/C [13]: 157%
viability, T/C [14]: 132%
viability, T/C [15]: 151%
viability, T/C [16]: 88.2%
viability, T/C [17]: 80.1%
viability, T/C [18]: 78.5%
viability, T/C [19]: 157%
viability, T/C [20]: 206%
viability, T/C [21]: 111%
viability, T/C [22]: 89.7%
viability, T/C [23]: 89.1%
viability, T/C [24]: 83.2%
viability, T/C [25]: 128%
viability, T/C [26]: 132%
viability, T/C [27]: 123%
viability, T/C [28]: 94%
viability, T/C [29]: 77.4%
viability, T/C [30]: 84.9%
